Experiments:
human PHD2181-417 = human PHD2181-417 (Homo sapiens (Human), UniProt Q9GZT9); assay: PHD2 enzyme activity assay ([14C]-succinic acid production); assay type: biochemical; conditions: PHD2181-417 polypeptide, HIF-1α peptide 10 μM, [5-14C]-2-oxoglutaric acid; 30 min pre-incubation; tested 10 μM to 3 nM;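 also: reaction ran 10 min with compound in Tris pH 7.5 buffer with catalase, DTT and ascorbate, labelled succinate freed of leftover 2-oxoglutarate by DNP precipitation, then beta counted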
human PHD2181-417, sequence (Q9GZT9 181-417): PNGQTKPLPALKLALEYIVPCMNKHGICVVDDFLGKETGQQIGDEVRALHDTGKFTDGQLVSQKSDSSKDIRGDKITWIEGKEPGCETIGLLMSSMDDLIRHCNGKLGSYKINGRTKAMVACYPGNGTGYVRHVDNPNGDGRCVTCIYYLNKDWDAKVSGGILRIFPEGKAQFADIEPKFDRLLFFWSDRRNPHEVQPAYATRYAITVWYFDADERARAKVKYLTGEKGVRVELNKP

Hep-3B cells = assay: Cellular assay: EPO secretion in Hep-3B cells; assay type: cell-based, human; set-up: EPO secretion, % of control compound: dose or concentration left out as unconfirmed; conditions: Homo sapiens, Hep3B, 24 h, EPO secretion as percentage of control compound 7-[(4-Chloro-phenyl)-(5-methyl-isoxazol-3-ylamino)-methyl]-quinolin-8-ol, read-out: Cellular % EPO Stimulation

Enzyme pIC50 (human PHD2181-417)	Compound	EPO secretion, % of control compound (Hep-3B cells) [%]
6.7	O=C(O)c1cnn(-c2nc3cc(F)c(Br)cc3[nH]2)c1 [Example 109, 1-(6-Bromo-5-fluoro-1H-benzoimidazol-2-yl)-1H-pyrazole-4-carboxylic Acid]	99
7.3	CC(C)S(=O)(=O)c1cc2[nH]c(-n3cc(C(=O)O)cn3)nc2cc1Cl [Example 101, 1-[5-Chloro-6-(propane-2-sulfonyl)-1H-benzoimidazol-2-yl]-1H-pyrazole-4-carboxylic Acid]	62.2
6.4	CCC(=O)Nc1cc2nc(-n3cc(C(=O)O)cn3)[nH]c2cc1Cl [Example 140, 1-(6-Chloro-5-propionylamino-1H-benzoimidazol-2-yl)-1H-pyrazole-4-carboxylic Acid]	10
6.3	O=C(O)c1cnn(-c2nc3cc(F)ccc3[nH]2)c1 [Example 42, 1-(5-Fluoro-1H-benzoimidazol-2-yl)-1H-pyrazole-4-carboxylic Acid]	33.8
7	O=C(O)c1cnn(-c2nc3cc(SCCN4CCOCC4)c(Cl)cc3[nH]2)c1 [Example 166, 1-[6-Chloro-5-(2-morpholin-4-yl-ethylsulfanyl)-1H-benzoimidazol-2-yl]-1H-pyrazole-4-carboxylic Acid]	15.1
7.6	O=C(O)c1cnn(-c2nc3cc(S(=O)(=O)Cc4cccc(Cl)c4)c(Cl)cc3[nH]2)c1 [Example 174, 1-[6-Chloro-5-(3-chloro-phenylmethanesulfonyl)-1H-benzoimidazol-2-yl]-1H-pyrazole-4-carboxylic Acid]	40.9
6.6	O=C(O)c1cnn(-c2nc3cc(C(=O)NN4CCOCC4)ccc3[nH]2)c1 [Example 122, 1-[5-(Morpholin-4-ylcarbamoyl)-1H-benzoimidazol-2-yl]-1H-pyrazole-4-carboxylic Acid]	5.4
6.3	O=C(O)c1cnn(-c2nc3c(Br)cc(F)cc3[nH]2)c1 [Example 124, 1-(4-Bromo-6-fluoro-1H-benzoimidazol-2-yl)-1H-pyrazole-4-carboxylic Acid]	2.4
5.5	O=C(O)c1cnn(-c2nc3nc4ccccc4nc3[nH]2)c1 [Example 182, 1-(1H-Imidazo[4,5-b]quinoxalin-2-yl)-1H-pyrazole-4-carboxylic Acid]	13.4
6.3	O=C(O)c1cnn(-c2nc3cc4ccccc4cc3[nH]2)c1 [Example 114, 1-(1H-Naphtho[2,3-d]imidazol-2-yl)-1H-pyrazole-4-carboxylic Acid]	144
6.8	CS(=O)(=O)Nc1cc2nc(-n3cc(C(=O)O)cn3)[nH]c2cc1Cl [Example 136, 1-(6-Chloro-5-methanesulfonylamino-1H-benzoimidazol-2-yl)-1H-pyrazole-4-carboxylic Acid]	9
7.4	CS(=O)(=O)c1cc2[nH]c(-n3cc(C(=O)O)cn3)nc2cc1Cl [Example 99, 1-(5-Chloro-6-methanesulfonyl-1H-benzoimidazol-2-yl)-1H-pyrazole-4-carboxylic Acid]	34.9
7	CCCSc1cc2[nH]c(-n3cc(C(=O)O)cn3)nc2cc1Cl [Example 78, 1-(5-Chloro-6-propylsulfanyl-1H-benzoimidazol-2-yl)-1H-pyrazole-4-carboxylic Acid]	125
6.9	O=C(O)c1cnn(-c2nc3cc(Nc4ccccc4)c(Cl)cc3[nH]2)c1 [Example 133, 1-(6-Chloro-5-phenylamino-1H-benzoimidazol-2-yl)-1H-pyrazole-4-carboxylic Acid]	77
7.8	O=C(O)c1cnn(-c2nc3cc(S(=O)(=O)Cc4ccc(Cl)cc4)c(Cl)cc3[nH]2)c1 [Example 173, 1-[6-Chloro-5-(4-chloro-phenylmethanesulfonyl)-1H-benzoimidazol-2-yl]-1H-pyrazole-4-carboxylic Acid]	60.4
5.9	O=C(O)c1cnn(-c2nc3nccnc3[nH]2)c1 [Example 184, 1-(1H-Imidazo[4,5-b]pyrazin-2-yl)-1H-pyrazole-4-carboxylic Acid]	8.3
6.9	O=C(O)c1cnn(-c2nc3cc(C(=O)Nc4ccccc4)ccc3[nH]2)c1 [Example 120, 1-(5-Phenylcarbamoyl-1H-benzoimidazol-2-yl)-1H-pyrazole-4-carboxylic Acid]	21.1

Enzyme pIC50 (human PHD2181-417)	Compound	EPO secretion, % of control compound (Hep-3B cells) [%]
6.3	CC(=O)Nc1cc2nc(-n3cc(C(=O)O)cn3)[nH]c2cc1Cl [Example 139, 1-(5-Acetylamino-6-chloro-1H-benzoimidazol-2-yl)-1H-pyrazole-4-carboxylic Acid]	24
7.2	O=C(O)c1cnn(-c2nc3cc(Oc4ccccc4)c(C(F)(F)F)cc3[nH]2)c1 [Example 56, 1-(5-Phenoxy-6-trifluoromethyl-1H-benzoimidazol-2-yl)-1H-pyrazole-4-carboxylic Acid]	143
7.4	COc1cccc(S(=O)(=O)c2cc3nc(-n4cc(C(=O)O)cn4)[nH]c3cc2Cl)c1 [Example 88, 1-[6-Chloro-5-(3-methoxy-benzenesulfonyl)-1H-benzoimidazol-2-yl]-1H-pyrazole-4-carboxylic Acid]	69.4
7.1	CS(=O)(=O)c1ccc2nc(-n3cc(C(=O)O)cn3)[nH]c2c1 [Example 38, 1-(6-Methanesulfonyl-1H-benzoimidazol-2-yl)-1H-pyrazole-4-carboxylic Acid]	40.9
7	CSc1cc2[nH]c(-n3cc(C(=O)O)cn3)nc2cc1Cl [Example 75, 1-(5-Chloro-6-methylsulfanyl-1H-benzoimidazol-2-yl)-1H-pyrazole-4-carboxylic Acid]	106
6.18	O=C(O)c1cnn(-c2nc3cc(Sc4ccc(Cl)c(Cl)c4)c(Cl)cc3[nH]2)c1 [Example 63, 1-[6-Chloro-5-(3,4-dichloro-phenylsulfanyl)-1H-benzoimidazol-2-yl]-1H-pyrazole-4-carboxylic Acid]	26.5
7.1	CSc1cc2[nH]c(-n3cc(C(=O)O)cn3)nc2cc1OC(F)(F)F [Example 79, 1-(6-Methylsulfanyl-5-trifluoromethoxy-1H-benzoimidazol-2-yl)-1H-pyrazole-4-carboxylic Acid]	83.8
6.7	O=C(O)c1cnn(-c2nc3cc(SCc4ccccc4)c(Cl)cc3[nH]2)c1 [Example 66, 1-(5-Benzylsulfanyl-6-chloro-1H-benzoimidazol-2-yl)-1H-pyrazole-4-carboxylic Acid]	41.6
6.9	O=C(O)c1cnn(-c2nc3cc(SCC4CCCCC4)c(Cl)cc3[nH]2)c1 [Example 165, 1-(6-Chloro-5-cyclohexylmethylsulfanyl-1H-benzoimidazol-2-yl)-1H-pyrazole-4-carboxylic Acid]	27.3
7.3	O=C(O)c1cnn(-c2nc3cc(Oc4ccc(F)cc4)c(C(F)(F)F)cc3[nH]2)c1 [Example 54, 1-[5-(4-Fluoro-phenoxy)-6-trifluoromethyl-1H-benzoimidazol-2-yl]-1H-pyrazole-4-carboxylic Acid]	75.5
5.8	Cc1c(F)ccc2[nH]c(-n3cc(C(=O)O)cn3)nc12 [Example 116, 1-(5-Fluoro-4-methyl-1H-benzoimidazol-2-yl)-1H-pyrazole-4-carboxylic Acid]	18.3
6.4	O=C(O)c1cnn(-c2nc3nc4cc(Cl)c(Cl)cc4nc3[nH]2)c1 [Example 183, 1-(6,7-Dichloro-1H-imidazo[4,5-b]quinoxalin-2-yl)-1H-pyrazole-4-carboxylic Acid]	3.3
6.9	Cc1cccc(Sc2cc3nc(-n4cc(C(=O)O)cn4)[nH]c3cc2Cl)c1 [Example 60, 1-(6-Chloro-5-m-tolylsulfanyl-1H-benzoimidazol-2-yl)-1H-pyrazole-4-carboxylic Acid]	42.3
7.2	CCSc1cc2nc(-n3cc(C(=O)O)cn3)[nH]c2cc1OC(F)(F)F [Example 150, 1-(5-Ethylsulfanyl-6-trifluoromethoxy-1H-benzoimidazol-2-yl)-1H-pyrazole-4-carboxylic Acid]	47.2
7.6	O=C(O)c1cnn(-c2nc3cc(S(=O)(=O)c4ccccc4)c(C(F)(F)F)cc3[nH]2)c1 [Example 161, 1-(5-Benzenesulfonyl-6-trifluoromethyl-1H-benzoimidazol-2-yl)-1H-pyrazole-4-carboxylic Acid]	98.2
6.9	CCSc1cc2nc(-n3cc(C(=O)O)cn3)[nH]c2cc1F [Example 151, 1-(5-Ethylsulfanyl-6-fluoro-1H-benzoimidazol-2-yl)-1H-pyrazole-4-carboxylic Acid]	107
7.4	N#Cc1cc2nc(-n3cc(C(=O)O)cn3)[nH]c2cc1Cl [Example 39, 1-(6-Chloro-5-cyano-1H-benzoimidazol-2-yl)-1H-pyrazole-4-carboxylic Acid]	29.9

Source: patent US10851083B2, “Benzoimidazoles as prolyl hydroxylase inhibitors” (Janssen Pharmaceutica NV, priority 2008, dated 2020)
